Assay results taken from US20240398737A1, “FUNCTIONALIZED LONG-CHAIN HYDROCARBON MONO- AND DI-CARBOXYLIC ACIDS AND DERIVATIVES THEREOF, AND THEIR USE FOR THE PREVENTION OR TREATMENT OF DISEASE” (Espervita Therapeutics, Inc., priority 2021, published 2024).
Entries after “also recorded” stand apart in the source; their conditions may differ.

Tests used:
LIMK1 = LIMK1 (Homo sapiens (Human), UniProt P53667); assay: Wild type kinase screen: LIMK1; format: biochemical; settings: compound at 10 μM, 10 μM ATP, Data 1 and Data 2 duplicates
LIMK1, sequence (P53667 whole entry, species assumed): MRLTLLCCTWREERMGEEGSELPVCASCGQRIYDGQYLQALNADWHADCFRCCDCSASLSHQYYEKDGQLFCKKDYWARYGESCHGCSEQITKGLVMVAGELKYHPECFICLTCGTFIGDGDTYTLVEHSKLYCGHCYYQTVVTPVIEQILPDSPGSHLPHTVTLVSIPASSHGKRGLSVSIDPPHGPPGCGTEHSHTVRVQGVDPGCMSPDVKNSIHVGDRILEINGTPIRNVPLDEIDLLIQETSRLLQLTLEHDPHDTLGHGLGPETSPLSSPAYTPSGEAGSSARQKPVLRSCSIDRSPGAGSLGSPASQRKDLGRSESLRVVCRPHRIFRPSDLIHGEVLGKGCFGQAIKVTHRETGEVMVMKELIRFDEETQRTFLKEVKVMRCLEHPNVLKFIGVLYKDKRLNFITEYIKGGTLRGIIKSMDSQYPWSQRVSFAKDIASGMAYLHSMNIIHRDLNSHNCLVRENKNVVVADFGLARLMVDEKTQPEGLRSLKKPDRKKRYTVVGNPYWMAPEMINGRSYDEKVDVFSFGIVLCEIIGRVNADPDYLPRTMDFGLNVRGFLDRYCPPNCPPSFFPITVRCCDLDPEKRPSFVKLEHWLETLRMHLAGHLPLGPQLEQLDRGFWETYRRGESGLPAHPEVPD

CAMK2g = CAMK2g (Homo sapiens (Human), UniProt Q13555); assay: Wild type kinase screen: CAMK2g; format: biochemical; settings: compound at 10 μM, 10 μM ATP, Data 1 and Data 2 duplicates
Aurora B = Aurora B (Homo sapiens (Human), UniProt Q96GD4); assay: Wild type kinase screen: Aurora B; format: biochemical; settings: compound at 10 μM, 10 μM ATP, Data 1 and Data 2 duplicates
Aurora B, sequence (Q96GD4 whole entry): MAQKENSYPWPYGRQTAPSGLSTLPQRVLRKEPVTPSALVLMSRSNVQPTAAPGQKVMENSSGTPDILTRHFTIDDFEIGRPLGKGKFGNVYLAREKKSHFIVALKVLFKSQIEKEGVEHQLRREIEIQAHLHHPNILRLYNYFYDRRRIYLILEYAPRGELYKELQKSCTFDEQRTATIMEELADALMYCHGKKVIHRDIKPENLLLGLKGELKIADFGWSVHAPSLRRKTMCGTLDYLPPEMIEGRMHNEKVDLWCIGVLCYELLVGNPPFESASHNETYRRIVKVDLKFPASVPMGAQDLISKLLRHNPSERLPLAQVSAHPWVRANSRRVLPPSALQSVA

[1] = Single and repeat dose plasma and tissue pharmacokinetics in male C57BL/6 mice; format: in vivo, mouse; settings: for Bioavailability in brain compared to liver (fold lower): 20 mg/kg PO, male C57BL/6 mice; for Cmax / Tmax / AUC(0-t): male, C57BL/6, mouse, po
From the text: Materials and methods. The study involved two arms: a single dose pharmacokinetic study and a 4-day repeated-dose pharmacokinetic study. For each arm, 56 inbred male C57BL/6 mice, aged at 6-7 week, were included. All animals were purchased from Charles River Lab (CRL, MA). Upon their arrival, they were kept in special-pathogen-free environment all the time. Briefly, they were housed in group on corncob bedding (ScottPharma, MA) in Innovive® caging system (Innovive, CA) on a 12-hour light-dark cycle (0700-1900) at 68-74° F. and 30-70% humidity. They were allowed continually to access water and regular rodent Purina 5001 diet (ScottPharma, MA) ad libitum and to acclimate in the facility for 5 days. Animal handling and procedures were conducted under the protocols and/or guidelines approved by the Institutional Animal Care and Use Committee (IACUC) of […] Biosciences, Inc. […] Also, 2× drug vehicle (3% CMC+0.4% Tween-20) was prepared and stored at 4° C. for a week. On the day of injection, 1 ml frozen 2× aqueous stock solution (20 mg/ml drug solution) aliquot is thawed and mix with another 1 ml 2× drug vehicle (3% Carboxymethyl cellulose+0.4% Tween 20) to prepare 10 mg/ml drug solution. A 25 g mouse would receive 250 μl of 10 mg/ml solution for a dose of 100 mg/kg. Lower concentrations can be achieved by further diluting the 10 mg/ml in 1× vehicle solution with 1× vehicle prepared with milliQ water. On each dosing day, both compound stocks and 2× vehicle were warmed to room temperature and was mixed at 1:1 ratio, given to a concentration of 10 mg/mL. Then 1:5-fold dilutions were obtained with 1× vehicle to 2 mg/mL. Dosing volume at 10 mL/kg (final dosage: 20 mg/kg) in the morning. Route of administration is oral gavage (volume of 10 ml/kg body weight). Study Design. In each group 4 male 6-7-week-old C57BL/6 mice were used. Doses were administered once daily via oral gavage for either a day (single dose arm, QDx1) or 4 consecutive days (repeated dose arm, QDx4) (FIG. 24). Blood, half of brain hemisphere, and one lobe of liver samples were collected from all animals of Day 1 (QDx1 arm) at pre-dose and 0.25, 2, 4, 8, 24 and 36 hours post dose, or Day 4 (QDx4 arm) at pre-dose and 0.25, 2, 4, 8, 24 and 48 hours post dose. Blood samples were collected by cardiac puncture. The blood samples were maintained in wet ice first and centrifuged to obtain plasma (2000×g, 4° C., 5 min). All three samples from each mouse were analyzed for either Compound I-1 or Compound I-32 contents by Integrated Analytical Solutions (Berkeley, CA) and the results were used for the generation of the pharmacokinetic graphs. Sample collection, storage, bioanalysis and statistical analysis. All plasma and tissue samples were analyzed by discovery grade bioanalytical method developed for estimation of each test compound in plasma and tissue samples using LC-MS/MS systems. Plasma samples were prepared as follows. Three volumes of acetonitrile containing internal standard was added to one volume of plasma to precipitate proteins. Samples were centrifuged (3000×g for 10 min) and supernatant removed for analysis by LC-MS/MS. Calibration standards and quality controls were made by preparation of a 1 mg/mL stock solution in MeOH and subsequently a series of working solutions in MeOH:water (1:1, v/v) which were spiked into blank plasma to yield a series of calibration standard samples in the range of 1.0 ng/mL to 10 μg/mL. All incurred PK/PD plasma samples were treated identically to the calibration standards and quality control samples. LC-MS/MS analysis was performed utilizing multiple reaction monitoring for detection of characteristic ions for each drug candidate, additional related analytes and internal standard. Tissue samples were prepared as follows. Three volumes of PBS buffer (pH 7.4) were added to one volume of each tissue sample which was then homogenized to obtain each tissue homogenate sample. […]

female Wistar Han rats = assay: 4-day oral gavage toxicity study in female rats; settings: 4 days; for Compound-related effects in hematology or coagulation test results / Compound-related mortality, clinical observations, body weight effects, or changes in food consumption: 100 or 300 mg/kg/day oral gavage once daily; for Compound-related macroscopic observations: 100 or 300 mg/kg/day
[2] = brain, 20 mg/kg/day, mouse brain, 20 mg/kg/day PO, 4 consecutive days (QD × 4)
[3] = brain, 20 mg/kg/day, mouse brain, 20 mg/kg/day PO, single dose (QD × 1)
[4] = liver, 20 mg/kg/day, mouse liver, 20 mg/kg/day PO, 4 consecutive days (QD × 4)
[5] = liver, 20 mg/kg/day, mouse liver, 20 mg/kg/day PO, single dose (QD × 1)
[6] = plasma, 20 mg/kg/day, mouse plasma, 20 mg/kg/day PO, 4 consecutive days (QD × 4)
[7] = plasma, 20 mg/kg/day, mouse plasma, 20 mg/kg/day PO, single dose (QD × 1)
[8] = mouse brain, 20 mg/kg/day PO, 4 consecutive days (QD × 4)
[9] = mouse brain, 20 mg/kg/day PO, single dose (QD × 1)
[10] = mouse liver, 20 mg/kg/day PO, 4 consecutive days (QD × 4)
[11] = mouse liver, 20 mg/kg/day PO, single dose (QD × 1)
[12] = brain, 20 mg/kg, mouse brain, QD × 1, value in parentheses marked * (reanalysis per footnote of Tables 8-9)
[13] = brain, 20 mg/kg, mouse brain, QD × 4, value in parentheses marked * (reanalysis per footnote of Tables 8-9)
[14] = liver, 20 mg/kg, mouse liver, QD × 1, value in parentheses: timepoint 0.25 h samples after reanalysis
[15] = liver, 20 mg/kg, mouse liver, QD × 4, value in parentheses: timepoint 0.25 h samples after reanalysis
[16] = plasma, 20 mg/kg, mouse plasma, QD × 1, value in parentheses: timepoint 0.25 h samples after reanalysis
[17] = plasma, 20 mg/kg, mouse plasma, QD × 4, value in parentheses: timepoint 0.25 h samples after reanalysis

CC(C)(CCCCc1cccc(CCCCC(C)(C)C(=O)O)c1)C(=O)O [Compound I-32, 6-[3-(5-carboxy-5-methylhexyl)-phenyl]-2,2-dimethylhexanoic acid]
% Enzyme Activity (relative to DMSO controls) (LIMK1): 71.71%
% Enzyme Activity (relative to DMSO controls) (CAMK2g): 66.13%
% Enzyme Activity (relative to DMSO controls) (Aurora B): 67.29%
Bioavailability in brain compared to liver (fold lower) [1]: 300-400 fold
Cmax [1, 2]: 604 ng/g
Tmax [1, 2]: 240 min
Cmax [1, 3]: 362 ng/g
Tmax [1, 3]: 120 min
Cmax [1, 4]: 43000 ng/g
Tmax [1, 4]: 240 min
Cmax [1, 5]: 25100 ng/g
Tmax [1, 5]: 120 min
AUC(0-t) [1, 6]: 758 µg·h/mL
Cmax [1, 6]: 76.5 µg/mL
Tmax [1, 6]: 240 min
AUC(0-t) [1, 7]: 240 µg·h/mL
Cmax [1, 7]: 50.2 µg/mL
Tmax [1, 7]: 120 min
AUC0-t (h*ng/g) [1, 8]: 6,304 h*ng/g
AUC0-t (h*ng/g) [1, 9]: 1,527 h*ng/g
AUC0-t (h*ng/g) [1, 10]: 100,6991 h*ng/g
AUC0-t (h*ng/g) [1, 11]: 405,934 h*ng/g
Adversity of the effects at this dose (female Wistar Han rats; 300 mg/kg/day): nonadverse
Albumin:globulin ratio (clinical chemistry) (female Wistar Han rats; 300 mg/kg/day): minimally higher
Globulin concentration (clinical chemistry) (female Wistar Han rats; 300 mg/kg/day): minimally lower
Liver microscopic findings (female Wistar Han rats; 300 mg/kg/day): increase in mitoses in hepatocytes; also recorded: periportal hepatocyte vacuolation
Serum urea nitrogen concentration (female Wistar Han rats; 300 mg/kg/day, considered potentially compound-related): Minimally lower
Compound-related effects in hematology or coagulation test results (female Wistar Han rats): No
Compound-related mortality, clinical observations, body weight effects, or changes in food consumption (female Wistar Han rats): No
Compound-related macroscopic observations (female Wistar Han rats): No

CC(C)(CCCCc1ccc(CCCCC(C)(C)C(=O)O)cc1)C(=O)O [Compound I-1, 6-[4-(5-carboxy-5-methylhexyl)-phenyl]-2,2-dimethylhexanoic acid]
% Enzyme Activity (relative to DMSO controls) (LIMK1): 71.9%
% Enzyme Activity (relative to DMSO controls) (CAMK2g): 57.02%
% Enzyme Activity (relative to DMSO controls) (Aurora B): 63.21%
Bioavailability in brain compared to liver (fold lower) [1]: 300-400 fold
Cmax [1, 12]: 1020 ng/g
Tmax [1, 12]: 15 min
Cmax [1, 13]: 1390 ng/g
Tmax [1, 13]: 15 min
Cmax [1, 2]: 168 ng/g
Tmax [1, 2]: 240 min
Cmax [1, 3]: 492 ng/g
Tmax [1, 3]: 120 min
Cmax [1, 14]: 21500 ng/g
Tmax [1, 14]: 15 min
Cmax [1, 15]: 46600 ng/g
Tmax [1, 15]: 15 min
Cmax [1, 4]: 30900 ng/g
Tmax [1, 4]: 15 min
Cmax [1, 5]: 27000 ng/g
Tmax [1, 5]: 15 min
AUC(0-t) [1, 16]: 1670 µg·h/mL
Cmax [1, 16]: 90 µg/mL
Tmax [1, 16]: 15 min
AUC(0-t) [1, 17]: 1090 µg·h/mL
Cmax [1, 17]: 76.1 µg/mL
Tmax [1, 17]: 15 min
AUC(0-t) [1, 6]: 1170 µg·h/mL
Cmax [1, 6]: 102 µg/mL
Tmax [1, 6]: 15 min
AUC(0-t) [1, 7]: 1380 µg·h/mL
Cmax [1, 7]: 102 µg/mL
Tmax [1, 7]: 15 min
AUC0-t (h*ng/g) [1, 8]: 1,220 h*ng/g
AUC0-t (h*ng/g) [1, 9]: 1,183 h*ng/g
AUC0-t (h*ng/g) ([1]; mouse brain, QD × 1, value in parentheses marked * (reanalysis per footnote of Tables 8-9)): (2,091)* h*ng/g
AUC0-t (h*ng/g) ([1]; mouse brain, QD × 4, value in parentheses marked * (reanalysis per footnote of Tables 8-9)): (3,995)* h*ng/g
AUC0-t (h*ng/g) [1, 10]: 687,414 h*ng/g
AUC0-t (h*ng/g) [1, 11]: 425,184 h*ng/g
AUC0-t (h*ng/g) ([1]; mouse liver, QD × 1, value in parentheses: timepoint 0.25 h samples after reanalysis): (469,726)* h*ng/g
AUC0-t (h*ng/g) ([1]; mouse liver, QD × 4, value in parentheses: timepoint 0.25 h samples after reanalysis): (718,455)* h*ng/g
Adversity of the effects at this dose (female Wistar Han rats; 100 mg/kg/day): nonadverse
Albumin:globulin ratio (clinical chemistry) (female Wistar Han rats; 100 mg/kg/day): minimally higher
Globulin concentration (clinical chemistry) (female Wistar Han rats; 100 mg/kg/day): minimally lower
Adversity of the effects at this dose (female Wistar Han rats; 300 mg/kg/day): adverse
Albumin:globulin ratio (clinical chemistry) (female Wistar Han rats; 300 mg/kg/day): minimally higher
Globulin concentration (clinical chemistry) (female Wistar Han rats; 300 mg/kg/day): minimally lower
Kidney microscopic findings (female Wistar Han rats; 300 mg/kg/day): tubular degeneration/necrosis, tubular regeneration, and increased mitoses
Compound-related effects in hematology or coagulation test results (female Wistar Han rats): No
Compound-related mortality, clinical observations, body weight effects, or changes in food consumption (female Wistar Han rats): No
Compound-related macroscopic observations (female Wistar Han rats): No
Liver microscopic findings (female Wistar Han rats; >100 mg/kg/day (so in the source)): increase in mitoses in hepatocytes
